{
  "source": "patent US11931329B2",
  "about": "“Compositions and methods for treating anxiety-related disorders” (Yamo Pharmaceuticals LLC, priority 2019, dated 2024)",
  "assay_type_in_all_cases": "in vivo, human",
  "key": {"[1]": {"test_system": "ASD patient with obsessive thoughts and compulsive behaviors", "assay": "Case study demonstrating reduction of obsessions and compulsions (SUBJECT)", "conditions": "L1-79 100-200 mg three times per day", "description": "An ASD patient (SUBJECT) has a history of obsessive thoughts and compulsive behaviors that negatively impact their functioning. […]"}, "[2]": {"test_system": "patients diagnosed with Autistic Spectrum Disorder and one or more of Obsessive Compulsive Disorder and Attention Deficit/Hyperactivity Disorder", "assay": "Double blinded, placebo controlled dose ranging study of L1-79 in autism: obsessive-compulsive symptoms (case studies)", "description": "(§1) Study Title: A Double Blinded, Randomized, Placebo Controlled, Dose Ranging Study for the use of L1-79 in the Treatment of Autism\n(§2) Study Design: Blinded, randomized, 4-arm, 4-week treatment period. Treatment arms consist of α-methyl-DL-tyrosine (i.e., L1-79) in doses of 100 mg, or 200 mg, or placebo tid.\n(§3) Sample Size:N=30; randomized and 10 open label to 4 groups:\n(§4) Study Population: Male subjects between the ages of 13 and 21 years of age, diagnosed with autism who that meet the entry criteria and who are able to complete standardized measures allowing them to participate in this study.\n(§5) Major Inclusion Criteria: Males between 13 and 21 years of age, signed informed consent, normal clinical laboratory values, DSM-5 compliant diagnosis of autism spectrum disorder, confirmed by the Autistic Diagnosis Interview Review (ADIR), and by the Autism Diagnosis Observation Schedule (ADOS) score consistent with a diagnosis of autism. No more than one concomitant medication, stable concomitant medications for at least 2 weeks prior to enrollment and no planned changes in psychosocial interventions during the trial.\n(§6) Major Exclusion Criteria: Any co-morbidities, including Fragile-X syndrome, epilepsy, Retts syndrome, ADHD, or other disease or syndrome aside from autism that requires treatment. Any other psychiatric disorder, or out of range lab values. DSM-5 diagnosis of schizophrenia, schizoaffective disorder, alcohol use disorder; active medical problems: unstable seizures (>2 in past month), significant physical illness;\n(§7) Experimental Treatment: L1-79 at doses of 100 or 200 mg three times daily for 4 weeks.\n(§8) Dosage and Administration: L1-79 or placebo, as randomized, were administered orally according to the regimen above.\n(§9) Evaluation Schedule: Subjects were evaluated within one week prior to study accession, and weekly throughout the dosing period, and again 4 weeks after the cessation of treatment.\n(§10) Study Endpoints: The primary end point was an assessment of the safety of L1-79 based upon reported adverse events and changes in baseline in physical examination parameters that included orthostatic blood pressure, clinical laboratory measures, and ECGs. Secondary endpoints will include the attending physicians assessment as quantified by the Clinical Global Impressions scale based upon changes from baseline in various psychometric tests, including the Vineland Adaptive Behavior Scale 2nd edition (VABS II, VABS) questionnaire, the Autism Diagnostic Observation Schedule (ADOS), the Aberrant Behavior Checklist-Community (ABC-C), the Spencer Anxiety Scale (SAS), the Repetitive Behavior Score-Revised (RBS-R), the Social Responsiveness Scale (SRS), as well as from their personal observations in the clinic, and from videographic information taken during ADOS testing (per this protocol) and anecdotally as provided by caregivers over the course of this study.\nObsessive-compulsive symptoms can include ritualistic and repetitive/restricted behaviors, and obsessive thinking make it difficult for the patient to complete a task or concentrate in a conversation.\nAll of the patients were receiving L1-79 100-200 mg three times a day. None of the patients in the OCD symptom improvement group were receiving medication for Obsessive Compulsive Disorder\nObsessive-compulsive symptoms were initially recorded at baseline, and at end of active treatment using the Repetitive Behavior Scale, the Spence Children's’ Anxiety Scale, the Social Responsiveness Scale, the Clinical Global Impression Scale and direct parent report."}, "[3]": {"test_system": "patients diagnosed with Autistic Spectrum Disorder and one or more of Social Anxiety Disorder and Generalized Anxiety Disorder", "assay": "Double blinded, placebo controlled dose ranging study of L1-79 in autism: social anxiety symptoms (case studies)", "conditions": "for SRS/DSM-5 Social Communication scale range after treatment: after 4 weeks on L1-79", "description": "as §1, §2, §3, §4, §5, §6, §7, §8, §9, §10\nSocial anxiety symptoms included one or more of fear associated with meeting and talking to people, avoidance of social situations that would elicit significant anxiety in the past, anxiety in anticipation of a social situation, and an inability to initiate conversation with others. The presence of the social anxiety symptoms was recorded at baseline using the Aberrant Behavior Checklist-Community, the Spence Children's Anxiety Scale, the Social Responsiveness Scale, and/or the Clinical Global Impression Scale and direct parent report.\nAll of the patients were receiving L1-79 100-200 mg three times a day. None of the patients in the Social Anxiety symptom improvement group were receiving medication for Social Anxiety Disorder"}},
  "data": [
    {"smiles": "CC(N)(Cc1ccc(O)cc1)C(=O)O", "note": "(racemic) [L1-79, α-methyl-DL-tyrosine]", "values": [
      {"measurement": "compulsive behaviors/routines", "setting": "[1]", "result": "could be delayed or skipped"},
      {"measurement": "obsessive thoughts", "setting": "[1]", "result": "significant decrease in obsessive thoughts"},
      {"measurement": "rigid and inflexible thinking", "setting": "[1]", "result": "decrease in rigid and inflexible thinking"},
      {"measurement": "obsessive-compulsive symptoms", "setting": "[2]; ASD patients with OCD and/or ADHD, L1-79 100-200 mg three times a day", "result": "reductions in obsessive-compulsive symptoms"},
      {"measurement": "SRS/DSM-5 Repetitive Behavior and Restrictive Interests score after treatment", "setting": "[2]; Subject 02-002, baseline 96 (Severe), after treatment Moderate, L1-79 100-200 mg tid", "result": 73},
      {"measurement": "SRS/DSM-5 Repetitive Behavior and Restrictive Interests range after treatment", "setting": "[2]; Subject 02-003, baseline Severe, week 4, L1-79 100-200 mg tid", "result": "Moderate"},
      {"measurement": "CGI-I, Stereotypic and Restricted Interests section", "setting": "[2]; Subject 02-004, L1-79 100-200 mg tid", "result": "Much Improved"},
      {"measurement": "Spence Children's Anxiety Scale OCD score after treatment", "setting": "[2]; Subject 02-007, baseline 3.0 (anxiety disordered children), 0 = normal/no OCD, L1-79 100-200 mg tid", "result": 0},
      {"measurement": "SRS/DSM-5 subscale Repetitive Behaviors and Restricted Interests range after treatment", "setting": "[2]; Subject 02-007, baseline Moderate, L1-79 100-200 mg tid", "result": "Within Normal Limits"},
      {"measurement": "CGI-I score (OCD symptoms)", "setting": "[2]; Subject 02-012, L1-79 100-200 mg tid", "result": "Much Improved"},
      {"measurement": "SRS/DSM-5 Repetitive Behavior and Restrictive Interests score after treatment", "setting": "[2]; Subject 02-012, baseline 80 (Severe), after treatment Within Normal Limits, L1-79 100-200 mg tid", "result": 46},
      {"measurement": "SRS/DSM-5 Repetitive Behavior and Restrictive Interests score after treatment", "setting": "[2]; Subject 02-16, baseline 65 (Mild), after treatment Within Normal Limits, L1-79 100-200 mg tid", "result": 46},
      {"measurement": "CGI-Severity scale, Stereotyped Behaviors and Restricted Interests, after treatment", "setting": "[2]; Subject 02-16, baseline Mildly Ill, L1-79 100-200 mg tid", "result": "Normal"},
      {"measurement": "SRS/DSM-5 Repetitive Behavior and Restrictive Interests score after treatment", "setting": "[2]; Subject 02-020, baseline 85 (Severe), after treatment Moderate, L1-79 100-200 mg tid", "result": 73},
      {"measurement": "obsessive interest / preoccupation in conversation", "setting": "[2]; one patient who could talk only about their obsessive interest at baseline, after 4 weeks on active drug", "result": "able to have conversations about things of interest to others"},
      {"measurement": "self-injurious compulsive behaviors", "setting": "[2]; one patient with self-injurious compulsive behaviors at baseline, after 3 weeks on active drug", "result": "completely stopped self-injury"},
      {"measurement": "anxiety-related symptoms", "setting": "[2]; patients with OCD or SAD in the L1-79 autism study, 100 or 200 mg tid, 4 weeks, oral", "result": "improved anxiety-related symptoms"},
      {"measurement": "social-anxiety symptoms", "setting": "[3]; ASD patients with SAD and/or GAD, L1-79 100-200 mg three times a day", "result": "reductions in social-anxiety symptoms"},
      {"measurement": "ABC-C Social Withdrawal after treatment", "setting": "[3]; Subject 02-002, baseline 98%, L1-79 100-200 mg tid", "result": 75, "unit": "%"},
      {"measurement": "SRS/DSM-5 Social Communication scale range after treatment", "setting": "[3]; Subject 02-002, baseline Severe", "result": "Moderate"},
      {"measurement": "CGI-I, Social Interaction and Communication", "setting": "[3]; Subject 02-002, week 4", "result": "Much Improved"},
      {"measurement": "ABC-C Social Withdrawal after treatment", "setting": "[3]; Subject 02-007, baseline 75%, week 4 of treatment", "result": "< 40", "unit": "%"},
      {"measurement": "ABC-C Social Withdrawal after treatment", "setting": "[3]; Subject 02-009, baseline 91%, week 4 of treatment with L1-79", "result": 63, "unit": "%"},
      {"measurement": "ABC-C Social Withdrawal after treatment", "setting": "[3]; Subject 02-012, baseline 84%, L1-79 100-200 mg tid", "result": "< 40", "unit": "%"},
      {"measurement": "CGI-Severity Score after treatment", "setting": "[3]; Subject 02-012, baseline Moderately Ill", "result": "Borderline Ill"},
      {"measurement": "SRS/DSM-5 Social Communication scale range after treatment", "setting": "[3]; Subject 02-012, baseline Severe", "result": "Within Normal Limits"},
      {"measurement": "CGI-I, Social Interaction and Communication", "setting": "[3]; Subject 02-012, week 4", "result": "Much Improved"},
      {"measurement": "CGI-I, Social Interactions and Communication area", "setting": "[3]; Subject 02-014, L1-79 100-200 mg tid", "result": "Much Improved"},
      {"measurement": "CGI-Severity score, Social Interaction area, after treatment", "setting": "[3]; Subject 02-014, baseline Markedly Ill", "result": "Moderately Ill"},
      {"measurement": "SRS/DSM-5 Social Communication scale range after treatment", "setting": "[3]; Subject 02-016, baseline Mildly Deficient", "result": "Within Normal Limits"},
      {"measurement": "CGI-Severity Score, Social Interaction and Communication, after treatment", "setting": "[3]; Subject 02-016, baseline Mildly Ill", "result": "Normal"},
      {"measurement": "CGI-I, Social Interaction and Communication", "setting": "[3]; Subject 02-016, week 4", "result": "Much Improved"},
      {"measurement": "CGI-I, Social Interaction and Communication", "setting": "[3]; Subject 02-022, week 4 of treatment with L1-79", "result": "Much Improved"}
    ]}
  ]
}
